Experimental findings from ChEMBL document CHEMBL1148788 (J Med Chem, 2007) are described below.

The target of test [1] is T1, Neuronal acetylcholine receptor subunit alpha-7 (Homo sapiens, UniProt P36544). Kind of test: Displacement of [3H]methyllycaconitine from human alpha-7 in tsA201 cells coexpressed with 5HT3A receptor. The class given is cell-based. On the technique in general: Loss of bound radioactivity is the signal in a displacement assay; it reports binding, not function.
In test [2] the target is T2, Glycine receptor subunit alpha-1 (Homo sapiens, UniProt P23415).
T2 sequence (P23415 whole entry): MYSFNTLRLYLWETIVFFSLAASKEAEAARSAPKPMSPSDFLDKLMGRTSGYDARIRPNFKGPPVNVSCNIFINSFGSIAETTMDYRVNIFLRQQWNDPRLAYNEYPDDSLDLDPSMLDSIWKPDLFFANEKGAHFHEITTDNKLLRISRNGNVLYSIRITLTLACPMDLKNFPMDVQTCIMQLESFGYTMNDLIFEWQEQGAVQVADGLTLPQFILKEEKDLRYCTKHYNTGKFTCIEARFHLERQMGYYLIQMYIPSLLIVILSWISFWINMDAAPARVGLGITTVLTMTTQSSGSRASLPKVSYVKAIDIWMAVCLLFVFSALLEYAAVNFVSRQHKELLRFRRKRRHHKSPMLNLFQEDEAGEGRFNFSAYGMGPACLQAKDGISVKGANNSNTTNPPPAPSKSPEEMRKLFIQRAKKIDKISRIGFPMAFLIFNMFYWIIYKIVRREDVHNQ
Kind of test: Antagonist activity at human glycine alpha-1 receptor in HEK293 cells by FMP assay. To be noted: for pIC50: hek293. It counts as functional, cell-based.

The target of test [3] is T3, Neuronal acetylcholine receptor; alpha3/beta4 (Rattus norvegicus, UniProt P04757+P12392). Description: Displacement of [3H]epibatidine from recombinant rat alpha-3-beta-4 nAChr in HEK293 cell line. It counts as cell-based. To be noted: for pKi: hek293.
T3 sequence (P04757 whole entry): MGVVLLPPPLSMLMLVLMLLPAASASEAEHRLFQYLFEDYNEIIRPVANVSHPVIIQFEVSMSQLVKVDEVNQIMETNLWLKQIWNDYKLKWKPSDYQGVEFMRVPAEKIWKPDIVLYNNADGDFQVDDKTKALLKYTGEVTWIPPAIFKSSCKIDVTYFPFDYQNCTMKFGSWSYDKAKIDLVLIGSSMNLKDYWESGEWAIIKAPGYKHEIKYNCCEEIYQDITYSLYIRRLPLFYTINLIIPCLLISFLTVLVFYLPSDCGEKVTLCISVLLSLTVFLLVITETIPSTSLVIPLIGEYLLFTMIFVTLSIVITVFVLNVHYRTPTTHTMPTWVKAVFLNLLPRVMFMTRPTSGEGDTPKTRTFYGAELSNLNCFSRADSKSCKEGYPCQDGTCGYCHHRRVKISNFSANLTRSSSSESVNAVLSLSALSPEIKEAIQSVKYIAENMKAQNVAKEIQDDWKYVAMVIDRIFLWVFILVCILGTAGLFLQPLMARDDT
T3 sequence (P12392 whole entry): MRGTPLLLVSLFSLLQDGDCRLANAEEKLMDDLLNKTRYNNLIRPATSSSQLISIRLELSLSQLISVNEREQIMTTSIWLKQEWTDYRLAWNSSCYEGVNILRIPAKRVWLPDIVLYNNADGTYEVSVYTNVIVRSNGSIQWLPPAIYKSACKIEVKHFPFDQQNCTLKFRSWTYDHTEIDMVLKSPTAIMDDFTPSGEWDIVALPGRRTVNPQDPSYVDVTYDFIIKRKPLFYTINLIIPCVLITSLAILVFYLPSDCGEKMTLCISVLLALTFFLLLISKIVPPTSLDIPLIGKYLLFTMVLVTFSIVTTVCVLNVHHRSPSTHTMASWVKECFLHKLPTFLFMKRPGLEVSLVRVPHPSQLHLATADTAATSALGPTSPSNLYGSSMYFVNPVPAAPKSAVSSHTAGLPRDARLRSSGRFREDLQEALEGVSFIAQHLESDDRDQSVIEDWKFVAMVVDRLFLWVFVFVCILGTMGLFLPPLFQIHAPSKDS
Test [4] addresses Neuronal acetylcholine receptor; alpha4/beta2 (Rattus norvegicus, UniProt P09483+P12390). Description: Displacement of [3H]epibatidine from rat recombinant alpha-4-beta-2 nAChR in HEK293 cell line. It counts as cell-based. The note with it: for pKi: hek293; for Ki: read-out: Ki.
Test [5] concerns the target T4, 5-hydroxytryptamine receptor 3A (Homo sapiens, UniProt P46098).
T4 sequence (P46098 whole entry): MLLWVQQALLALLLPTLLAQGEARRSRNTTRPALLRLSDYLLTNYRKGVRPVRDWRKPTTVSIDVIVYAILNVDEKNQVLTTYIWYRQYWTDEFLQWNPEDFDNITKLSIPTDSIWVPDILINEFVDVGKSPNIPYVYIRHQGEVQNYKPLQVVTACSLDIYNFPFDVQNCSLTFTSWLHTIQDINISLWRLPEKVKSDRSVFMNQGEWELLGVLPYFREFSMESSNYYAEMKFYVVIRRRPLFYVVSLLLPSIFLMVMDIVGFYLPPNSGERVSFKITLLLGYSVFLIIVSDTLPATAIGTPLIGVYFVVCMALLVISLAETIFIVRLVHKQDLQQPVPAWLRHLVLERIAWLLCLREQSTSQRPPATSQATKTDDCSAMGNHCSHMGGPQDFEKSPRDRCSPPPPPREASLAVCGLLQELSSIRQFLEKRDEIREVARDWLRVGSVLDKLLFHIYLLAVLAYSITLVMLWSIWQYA
Kind of test: Antagonist activity at human 5HT3A receptor expressed in HEK293 cells by FMP assay. The class given is functional, cell-based. To be noted: for pIC50: hek293.

The target in test [6] is T4, 5-hydroxytryptamine receptor 3A. Description: Displacement of [3H]GR65630 from human 5HT3A receptor in HEK293 cells. The class given is cell-based. To be noted: for pKi: hek293.
Test [7] has as its target Neuronal acetylcholine receptor; alpha4/beta4 (Rattus norvegicus, UniProt P09483+P12392). Kind of test: Displacement of [3H]epibatidine from recombinant rat alpha-4-beta-4 nAChr in HEK293 cell line. The class given is cell-based. The note with it: for pKi: hek293.
A further test is described as follows: cells. The class given is functional, cell-based. The note with it: Homo sapiens, HEK293.
The target of test [8] is T1, Neuronal acetylcholine receptor subunit alpha-7. Description: Antagonist activity at human alpha-7 nAChR in tsA201 cells coexpressed with Ric3 by FMP assay. The class given is functional, cell-based.
Test [9] has as its target T3, Neuronal acetylcholine receptor; alpha3/beta4. Description: Antagonist activity at rat alpha3beta4 nAChR expressed in HEK293 cells by FMP assay. The class given is functional, cell-based, Homo sapiens. The note with it: for pIC50: hek293; for IC50: read-out: IC50.
In test [10] the target is T1, Neuronal acetylcholine receptor subunit alpha-7. Description: Displacement of [3H]methyllycaconitine from alpha7 nAChR in tsA201 cells co-expressed with Ric3. It counts as cell-based.

SMILES strings stand for the structures. Bounds are passed on as bounds.

Chain of Neuronal acetylcholine receptor; alpha4/beta2 (P09483 whole entry): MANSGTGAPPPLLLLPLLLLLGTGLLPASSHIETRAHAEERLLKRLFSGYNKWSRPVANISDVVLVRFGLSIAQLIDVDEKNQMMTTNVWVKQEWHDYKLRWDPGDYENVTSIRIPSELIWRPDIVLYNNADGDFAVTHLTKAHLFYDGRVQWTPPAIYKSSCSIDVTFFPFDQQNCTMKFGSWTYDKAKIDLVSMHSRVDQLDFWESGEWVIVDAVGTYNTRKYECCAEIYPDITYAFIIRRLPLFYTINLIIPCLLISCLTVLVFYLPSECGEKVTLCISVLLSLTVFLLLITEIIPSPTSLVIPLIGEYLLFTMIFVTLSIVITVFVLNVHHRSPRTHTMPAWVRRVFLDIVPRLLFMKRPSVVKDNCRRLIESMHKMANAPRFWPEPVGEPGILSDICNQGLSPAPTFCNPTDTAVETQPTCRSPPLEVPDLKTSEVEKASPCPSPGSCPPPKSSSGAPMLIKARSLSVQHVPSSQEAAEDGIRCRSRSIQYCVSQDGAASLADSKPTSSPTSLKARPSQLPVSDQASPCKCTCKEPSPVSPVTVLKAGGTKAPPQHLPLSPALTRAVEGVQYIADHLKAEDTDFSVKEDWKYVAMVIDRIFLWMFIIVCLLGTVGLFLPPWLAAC
Chain of Neuronal acetylcholine receptor; alpha4/beta2 (P12390 whole entry): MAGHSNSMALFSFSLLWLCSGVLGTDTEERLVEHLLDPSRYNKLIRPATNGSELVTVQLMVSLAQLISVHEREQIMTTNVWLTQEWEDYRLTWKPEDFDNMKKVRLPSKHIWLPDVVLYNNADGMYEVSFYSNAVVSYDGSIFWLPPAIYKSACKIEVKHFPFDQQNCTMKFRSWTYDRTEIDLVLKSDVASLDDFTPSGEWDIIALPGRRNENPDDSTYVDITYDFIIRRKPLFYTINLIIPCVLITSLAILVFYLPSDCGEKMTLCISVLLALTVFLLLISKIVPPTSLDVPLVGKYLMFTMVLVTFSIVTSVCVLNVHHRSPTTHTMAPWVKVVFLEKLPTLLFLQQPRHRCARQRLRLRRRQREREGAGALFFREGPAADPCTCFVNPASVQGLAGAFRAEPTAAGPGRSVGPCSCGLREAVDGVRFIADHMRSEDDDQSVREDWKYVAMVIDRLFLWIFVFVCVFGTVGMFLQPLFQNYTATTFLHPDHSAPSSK
Chain of Neuronal acetylcholine receptor; alpha4/beta4 (P09483 whole entry): as the sequence (P09483 whole entry) above
Chain of Neuronal acetylcholine receptor; alpha4/beta4 (P12392 whole entry): as the sequence (P12392 whole entry) above
T1 sequence (P36544 whole entry): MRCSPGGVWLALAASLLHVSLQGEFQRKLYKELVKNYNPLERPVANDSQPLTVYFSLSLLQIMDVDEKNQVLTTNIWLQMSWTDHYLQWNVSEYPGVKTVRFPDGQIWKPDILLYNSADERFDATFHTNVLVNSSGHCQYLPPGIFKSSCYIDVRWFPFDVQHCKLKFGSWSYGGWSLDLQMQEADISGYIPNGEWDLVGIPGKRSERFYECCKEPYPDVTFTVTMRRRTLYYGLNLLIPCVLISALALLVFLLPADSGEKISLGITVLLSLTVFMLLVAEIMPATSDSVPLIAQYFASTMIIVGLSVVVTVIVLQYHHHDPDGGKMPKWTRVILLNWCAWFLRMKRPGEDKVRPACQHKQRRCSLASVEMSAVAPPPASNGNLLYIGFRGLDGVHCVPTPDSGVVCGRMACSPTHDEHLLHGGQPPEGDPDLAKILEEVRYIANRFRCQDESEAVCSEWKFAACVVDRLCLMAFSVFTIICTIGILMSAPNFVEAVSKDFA

For `O=[N+]([O-])c1ccc(C[N+]23CCC4[C@@H]5/C(=C\N6c7ccccc7[C@@]78CC[N+]9(Cc%10ccc([N+](=O)[O-])cc%10)CC%10=CCO[C@H]([C@@H]([C@H]67)[C@H]%10C[C@@H]89)N5c5ccccc5)[C@@H](C[C@@H]42)/C(=C\CO)C3)cc1.[Br-].[Br-]` (stereo partly specified), the Ki in [1] (read-out: Ki) was 0.11 µM; in [1] (read-out: pKi (converted)), 0.126 µM; in [3], > 100 µM; in test [4] it was > 100 µM; in [6] it was 100 µM; in test [7], > 100 µM. Further, the results for the Ki in [10] (read-out: Ki) and in [10] (read-out: pKi (converted)) were 0.098 µM and 0.1 µM, respectively. Besides, the IC50 in [2] was > 100 µM; in [5] (read-out: IC50) it was 30 µM; in “cells” (read-out: IC50) it was > 100 µM; in the test “cells” (read-out: pIC50 (converted)) it was > 100 µM; in [8] (read-out: IC50), 2.5 µM; in test [8] (read-out: pIC50 (converted)) it was 2.45 µM. Further, the IC50 in [9] is > 100 µM. Moreover, the pIC50 in [2] and in test [9] was < 4 throughout. The pKi in [3], in [4] and in test [7] was < 4 in each case.

As to `C1=C2C[N+]3(Cc4ccccc4)CC[C@@H]4[C@@H]5[C@H]([C@@H](OC1)N1c6ccccc6[C@@]67CC[N+]8(Cc9ccccc9)CC9=CCO[C@H]([C@@H]([C@H]16)[C@H]9C[C@@H]78)N5c1ccccc1)[C@H]2C[C@@H]43.[Br-].[Br-]` (stereo partly specified), the Ki in test [1] (read-out: Ki) was 0.2 µM; in [1] (read-out: pKi (converted)), 0.2 µM; in test [3], > 100 µM; in test [4] it was > 100 µM; in [6], 100 µM; in test [7], > 100 µM. Moreover, the Ki in test [10] (read-out: Ki) is 0.25 µM; in test [10] (read-out: pKi (converted)), 0.251 µM. Moreover, the IC50 was > 100 µM in test [2]; 100 µM in test [5] (read-out: IC50); > 100 µM in “cells” (read-out: IC50); > 100 µM in the test “cells” (read-out: pIC50 (converted)); 4.5 µM in test [8] (read-out: IC50); 4.47 µM in test [8] (read-out: pIC50 (converted)). For the same compound, in test [9], the IC50 was > 100 µM. Besides, the pIC50 in test [2] and in test [9] was < 4 in each case. The pKi in test [3], in test [4] and in test [7] was < 4 in each case.

On to `OC/C=C1/C[N+]2(C3C=CCCC3)CC[C@@H]3[C@@H]4/C(=C\N5c6ccccc6[C@@]67CC[N+]8(C9C=CCCC9)CC9=CCO[C@H]([C@@H]([C@H]56)[C@H]9C[C@@H]78)N4c4ccccc4)[C@H]1C[C@@H]32.[Br-].[Br-]` (stereo partly specified), for which the Ki in [1] (read-out: Ki) was 0.36 µM; in test [1] (read-out: pKi (converted)), 0.316 µM; in [3] it was 100 µM; in [4], > 100 µM; in test [6], 40 µM; in test [7], > 100 µM. In addition, the Ki was 0.23 µM in test [10] (read-out: Ki) and 0.251 µM in [10] (read-out: pKi (converted)). Further, the IC50 in test [2] was > 100 µM; in test [5] (read-out: IC50), 30 µM; in “cells” (read-out: IC50), > 100 µM; in “cells” (read-out: pIC50 (converted)), > 100 µM; in [8] (read-out: IC50) it was 2.3 µM; in test [8] (read-out: pIC50 (converted)), 2.34 µM. Moreover, the IC50 in [9] is 30 µM. For the same compound, in test [2], the pIC50 – broadly, the IC50 on a negative log10 scale, so that one unit is a factor of ten – is recorded as < 4. The negative-log Ki (pKi) in [4] and in test [7] was < 4 throughout.

Turning to `C1=C2CN3CC[C@@H]4[C@@H]5[C@H]([C@@H](OC1)N1c6ccccc6[C@@]67CCN8CC9=CCO[C@H]([C@@H]([C@H]16)[C@H]9C[C@H]87)N5c1ccccc1)[C@H]2C[C@@H]43`, the Ki in test [1] (read-out: Ki) is 1.1 µM; in [3] it was 30 µM; in test [4] it was > 100 µM; in [6], 3.1 µM; in test [7] it was > 100 µM; in test [10] (read-out: Ki) it was 1.1 µM. The Ki in test [10] (read-out: pKi (converted)) is 1 µM. The IC50 in [2] was > 100 µM; in test [5] (read-out: IC50), 11 µM; in test [5] (read-out: pIC50 (converted)) it was 12.6 µM; in the test “cells” (read-out: IC50), > 100 µM; in the test “cells” (read-out: pIC50 (converted)), > 100 µM; in [8] (read-out: IC50), 1.6 µM. Moreover, the IC50 was 1.58 µM in test [8] (read-out: pIC50 (converted)) and 11 µM in test [9]. Further, the pIC50 in [2] is given as < 4. Besides, the pKi in [4] and in test [7] was < 4 throughout.

Consider `CN(C)Cc1c2n(c3ccccc13)Cc1c(CN(C)C)c3ccccc3n1C2`, for which the Ki was 19 µM in test [1] (read-out: Ki); 20 µM in [1] (read-out: pKi (converted)); > 100 µM in [3]; > 100 µM in [4]; > 100 µM in test [6]; > 100 µM in test [7]. Besides, the Ki was 5.4 µM in [10] (read-out: Ki) and 5.01 µM in test [10] (read-out: pKi (converted)). In addition, the pKi in test [3], in test [4], in [6] and in test [7] was < 4 each time.

In the case of `CC(=O)OCC[N+]12CC[C@@H]3[C@@H]4[C@@H]5[C@@H](OCC=C(C1)[C@@H]5C[C@@H]32)N1c2ccccc2[C@@]23CC[N+]5(CCOC(C)=O)CC6=CCO[C@H]([C@@H]([C@H]12)[C@H]6C[C@@H]35)N4c1ccccc1.[Br-].[Br-]` (stereo partly specified), the Ki is 0.28 µM in [1] (read-out: Ki); 0.251 µM in [1] (read-out: pKi (converted)); > 100 µM in [3]; > 100 µM in test [4]; > 100 µM in test [6]; > 100 µM in [7]. Besides, the Ki in test [10] (read-out: Ki) was 0.31 µM; in test [10] (read-out: pKi (converted)), 0.316 µM. Also, the IC50 is > 100 µM in test [2]; > 100 µM in test [5] (read-out: IC50); > 100 µM in the test “cells” (read-out: IC50); > 100 µM in “cells” (read-out: pIC50 (converted)); 1.6 µM in test [8] (read-out: IC50); 1.62 µM in [8] (read-out: pIC50 (converted)). Moreover, the IC50 in [9] was > 100 µM. Further, the pIC50 in test [2], in [5] and in test [9] was < 4 each time. Further, the negative-log Ki (pKi) in [3], in test [4], in test [6] and in test [7] was < 4 throughout.

Consider `C=CC[N+](C)(C)Cc1c2n(c3ccccc13)Cc1c(C[N+](C)(C)CC=C)c3ccccc3n1C2.[Br-].[Br-]`, for which the Ki is 4.4 µM in test [1] (read-out: Ki); 3.98 µM in test [1] (read-out: pKi (converted)); > 100 µM in [3]; > 100 µM in test [4]; > 100 µM in [6]; > 100 µM in test [7]. Also, the Ki in test [10] (read-out: Ki) was 2.9 µM; in test [10] (read-out: pKi (converted)), 3.16 µM. Moreover, the IC50 is > 100 µM in test [2]; > 100 µM in test [5] (read-out: IC50); > 100 µM in the test “cells” (read-out: IC50); > 100 µM in the test “cells” (read-out: pIC50 (converted)); 30 µM in test [8] (read-out: IC50); 100 µM in [8] (read-out: pIC50 (converted)). Moreover, the IC50 in test [9] is > 100 µM. Besides, the pIC50 in test [2], in [5] and in [9] was < 4 each time. In addition, the pKi in [3], in test [4], in test [6] and in test [7] was < 4 throughout.

For `C1=C2C[N+]3(Cc4ccc5ccccc5c4)CC[C@@H]4[C@@H]5[C@H]([C@@H](OC1)N1c6ccccc6[C@@]67CC[N+]8(Cc9ccc%10ccccc%10c9)CC9=CCO[C@H]([C@@H]([C@H]16)[C@H]9C[C@@H]78)N5c1ccccc1)[C@H]2C[C@@H]43` (stereo partly specified), the Ki in test [1] (read-out: Ki) is 0.36 µM; in test [1] (read-out: pKi (converted)) it was 0.316 µM; in test [10] (read-out: Ki) it was 0.71 µM; in [10] (read-out: pKi (converted)), 0.631 µM.
